Test results reported in patent publication US20170196802A1, “Long Acting Injectable Formulations” (Abon Pharmaceuticals, LLC, priority 2016, published 2017).
Where two headings read alike, the source gives them in different places.

Legend:
[1] = weight gain, diabetes risk, dyslipidemia risk; cited from earlier work
[2] = Pharmacokinetic study, intramuscular injection, four arm parallel; assay type: in vivo, male Sprague-Dawley Rats; details: male, Sprague-Dawley, im, rat
Protocol: A long acting formulation is expected to suppress the maximum blood concentration (Cmax) and maintain therapeutic blood profiles for an extended period of time. […] To evaluate the in-vivo performance of our formulations, three suspensions of Lurasidone HCl were prepared with varying particle size and/or viscosity at 100 mg/mL with compositions given in Table 23, and with processes shown in FIGS. 11, 12 and 13 for Suspensions 1, 2, and 3, respectively. As a control, a solution of Lurasidone HCl was prepared at 2.5 mg/mL. […]
The blood samples were collected, placed into chilled tubes containing sodium heparin, inverted several times to mix, and kept on ice until centrifugation. […] Samples were analyzed with LC-MS/MS against an eight point standard curve with concentrations ranging from 0.05 ng/mL to 100 ng/mL. […]
Mass Spectrometer Conditions • Instrument: PE Sciex API4000 • Interface: Electrospray (“Turbo Ion Spray”) • Mode: Multiple reactions monitoring (MRM) • Gases: CUR 20, CAD 10, GS1 50, GS2 50 • Source Temperature: 500° C. • Voltages and Ions Monitored:
The formulations were well tolerated, and no adverse local or systemic reactions were observed following intramuscular administration of lurasidone to the animals. (Pharmacokinetic parameters were calculated with Phoenix WinNonlin version 6.4). […]

[3] = after oral administration of a 40 mg tablet; package insert; cited from earlier work
[4] = pH dependence; cited from earlier work

half-life ([2]; 1.5 mg/kg, calculated based on terminal phase plasma concentrations above 2% of Cmax)	half-life ([2]; plasma, 45 mg/kg)	Structure (SMILES)	metabolic effects [1]	half-life [3]	solubility profile [4]
		CN1CCN(C2=Nc3cc(Cl)ccc3Nc3ccccc32)CC1 [clozapine]	moderate to high		
		Cc1cc2c(s1)Nc1ccccc1N=C2N1CCN(C)CC1 [olanzapine]	moderate to high		
10 h	≤ 505 h	O=C1[C@@H]2[C@H]3CC[C@H](C3)[C@@H]2C(=O)N1C[C@@H]1CCCC[C@H]1CN1CCN(c2nsc3ccccc23)CC1 [lurasidone]	low	18 h	lower solubility at higher pH values
		OCCOCCN1CCN(C2=Nc3ccccc3Sc3ccccc32)CC1 [quetiapine]	moderate to high		
